US20260374809A1, “COMPOUNDS USEFUL FOR THE TREATMENT AND/OR CARE OF THE SKIN, HAIR, NAILS AND/OR MUCOUS MEMBRANES” (Lubrizol Advanced Materials, Inc., priority 2022, published 2026)
Where a SMILES comes first, the peptide text is derived from it.

Experiments:
EDA-Fn = test: Myofibroblast marker EDA-Fn by immunofluorescence; format: cell-based, human; conditions: 0.01 mg/ml; basal control = 100.0, MES = 135.7
Description: EDA-Fn is an isoform of fibronectin, which serves as marker for the presence of myofibroblasts.
After the experimental protocol described in EXAMPLE 8, recovery of the cells was performed by the extraction of cells from the 3D culture and their reseeding on glass coverslips. To recover cells, the collagen hydrogel was digested in agitation at 37 °C with a collagenase solution. After the digestion, cycles of centrifugation and washing were performed to eliminate collagen debris. Then, cells were seeded on coverslips in replicated as in the conditions of the 3D cultures of EXAMPLE 8. For future fluorescence analysis, cells were seeded on glass coverslips previously coated with collagen at a density of 3×10^5 fibroblasts/cm^2, let attach overnight and fixed with 4% PFA.
Glass coverslips were used to perform EDA-Fn immunofluorescence, a marker of myofibroblasts. EDA-Fn immunofluorescence was performed in control samples (with or without MES) and after peptide treatment (PEP-1 0.01 mg/ml). Briefly, cells attached to coverslips were permeabilized by 0.5% Triton X-100 in PBS for 10 minutes at room temperature. Then, blocking solution (4% BSA in PBS) was added for 2 hours. […] Finally, green fluorescence intensity was quantified in Operetta (PerkinElmer) for each condition and normalized by the number of nuclei. […]

[1] = system: Musclebind Like Protein 1 (MBNL1); test: MBNL1 protein in human dermal fibroblasts (HDFa), immunofluorescence; format: cell-based; conditions: HDFa cells; for % Fold induction (FI) (MEAN ± SEM), MBNL1 intensity: 24 hours, basal control = 100; for % MME (MEAN ± SEM), comparative MBNL1 intensity with respect to electrical stimulation: MES = 100, control = 0
Description: Musclebind Like Protein 1 (MBNL1) in Human Dermal Fibroblasts (HDF)
The aim of this study was to evaluate the increase of MBNL1 protein in human skin fibroblasts after electrical stimulation, mimicking a microcurrent-like treatment. Topical products able to increase MBNL1 protein amount in fibroblast cells, in a similar way to the microcurrent-like treatment, could induce the same antiaging benefits on the skin avoiding the side-effects of physical microcurrent treatment
Cells were seeded at 100.000 cells/well in 12-well plates over sterile glass slides and incubated at 37 °C, 5% CO2 for 48 hours. After that, electrical stimulation was performed. Glass slides were transferred to 6-well plates and were electro-stimulated (1.5V) for 1 hour using a C-dish device (IonOptix™) at room temperature. An identical 6-well plate with non-stimulated cells were incubated at room temperature for 1 hour. After electrostimulation, glass slides were transferred again to a 12-well plate and incubated at 37 °C, 5% CO2 for 24 hours. Three different replicates were used for each condition.
Cells were seeded at 8.000 cells/well in 96-well plates and incubated at 37 °C, 5% CO2 for 48 hours. After the incubation time, cells were treated with PEP-1 (H-Leu-Pro-Val-Thr-OH) at 0.01 mg/ml, 0.1 mg/ml and 0.5 mg/ml for 24 hours. Cells incubated with medium alone were used as a control. Three replicates were carried out for each condition.
After 24 hours of incubation, cells were washed two times with phosphate buffered saline (PBS), fixed with 4% PFA (paraformaldehyde solution) for 15 minutes and washed again two times. After that, cells were permeabilized with 1% X-Triton solution for 15 minutes and blocked with 5% bovine serum albumin (BSA) solution for 1 hour. Cells were incubated with 1/20 dilution of primary antibody against MBNL1 protein (Sigma) in 5% BSA solution for 2 hours. After the incubation time, cells were washed and incubated with 1/200 dilution of secondary antibody (AlexFluor™ 488) in 5% BSA solution for 1 hour. Finally, cells were washed 3 times and stained with 4′,6-Diamidine-2′-phenylindole dihydrochloride (DAPI) mount solution for nuclei detection. MBNL1 protein quantification were measured as fluorescence intensity of MBNL1 normalized by the number of nuclei for each condition using a confocal microscope (Operetta® confocal microscope, PerkinElmer Inc) using Alexa 488 Green channel (Ex: 460-490 nm/Em: 500-550 nm). Results are expressed as an MBNL1 level that is relative to that of the control condition.
At least, three independent experiments were analyzed in this assay.
Results were calculated using the following formula: […]
For comparative purposes, the effect of the peptide was compared with that of MES. The effect was calculated as follows: […]

[2] = system: Musclebind Like Protein 1 (MBNL1); test: MBNL1 protein expression in human skeletal muscle cells (hSKMC), HTRF; format: cell-based; conditions: 0.5 mg/ml, 48 hours, relative to basal control
Description: Musclebind Like Protein 1 (MBNL1) in Human Skeletal Muscle Cells (hSKMC)
An increase of MBNL-1 in muscle cells helps maintaining the tone of facial skin muscles. Thus, compounds able to enhance MBNL-1 can be used as a good approach for cosmetic treatment of sagging facial appearance.
Human skeletal muscle cells (hSKMC) were cultured at 100,000 cells in T25 flasks with growth medium. After 4 days, cells reached around 80% of confluency and were seeded at 150,000 cells per well in 12-well plates in growth medium. Cells were incubated for 72 hours and then they were changed to differentiation medium and incubated during 48 hours. At the end of this period, cells were treated with defined peptides (0.5 mg/ml) and with medium alone for control conditions during 48 hours in differentiation medium. Cells were also treated with 2 mM of ketoprofen as a positive control.
After the incubation period, cells were lysed and frozen at −80 °C. For total protein quantification protein extract was measured by Bicinchoninic Acid (BCA) method. MBNL1 protein detection was performed by Homogeneous Time Resolved Fluorescence (HTRF) technology. Normalization of MBNL1 levels were performed by total protein quantification for each condition. Results are expressed as a relative MBNL1 protein level respect to control conditions. At least 3 replicates were carried out per condition.

Compound: CC(C)C[C@H](N)C(=O)N1CCC[C@H]1C(=O)N[C@H](C(=O)N[C@H](C(=O)O)[C@@H](C)O)C(C)C [PEP-1, H-Leu-Pro-Val-Thr-OH] (H-LPVT-OH)
- Fold induction of EDA-Fn as myofibroblast marker, % Fold induction (FI) MEAN ± SEM (EDA-Fn): 172.3 ± 14.36%
- % Fold induction (FI) (MEAN ± SEM), MBNL1 intensity ([1]; 0.01 mg/ml): 106.66 ± 2.65%
- % MME (MEAN ± SEM), comparative MBNL1 intensity with respect to electrical stimulation ([1]; 0.01 mg/ml): 52.73 ± 2.65%
- % Fold induction (FI) (MEAN ± SEM), MBNL1 intensity ([1]; 0.1 mg/ml): 107.67 ± 1.62%
- % MME (MEAN ± SEM), comparative MBNL1 intensity with respect to electrical stimulation ([1]; 0.1 mg/ml): 60.73 ± 1.62%
- % Fold induction (FI) (MEAN ± SEM), MBNL1 intensity ([1]; 0.5 mg/ml): 109.46 ± 2.68%
- % MME (MEAN ± SEM), comparative MBNL1 intensity with respect to electrical stimulation ([1]; 0.5 mg/ml): 74.90 ± 2.68%
- % MBNL1 vs Basal control [2]: 213.0%
